According to PubChem BioAssay AID1259407 (Chemical Carcinogenesis Research Information System (CCRIS), 2018):
The source made the active and inactive calls. The rule behind the calls is not given here.

Tested on: CCRIS mutagenicity, Ames/micronucleus/aberration tests
Test: CCRIS mutagenicity studies

O=P1(N(CCCl)CCCl)NCCCO1 (stereo not drawn)
mutagenic call (End Point: IN VITRO CHROMOSOMAL ABERRATIONS, Test System: CHL/IU CELLS, Metabolic Activation: RAT, LIVER, S-9, PHENOBARBITAL AND 5,6-BENZOFLAVONE): active; positive (structural changes) | mutagenic call (End Point: IN VITRO CHROMOSOMAL ABERRATIONS, Test System: HUMAN LYMPHOCYTES, Metabolic Activation: RAT LIVER S-9, AROCLOR 1254): active; positive | mutagenic call (End Point: IN VITRO MICRONUCLEUS, Test System: BOVINE LYMPHOCYTES, Metabolic Activation: S-9 MIX, AROCLOR 1254): active; positive | mutagenic call (End Point: IN VITRO MICRONUCLEUS, Test System: CHL/IU CELLS, Metabolic Activation: RAT, LIVER, S-9, PHENOBARBITAL AND 5,6-BENZOFLAVONE): active; positive | mutagenic call (End Point: IN VITRO MICRONUCLEUS, Test System: CHO CELLS, Metabolic Activation: RAT, LIVER, S-9, AROCLOR 1254): active; positive | mutagenic call (End Point: IN VIVO MICRONUCLEUS, Test System: BLOOD ERYTHROCYTES, Species: MOUSE, Strain/Sex: CD-1/MALE, Route: ORAL): active; positive | mutagenic call (End Point: IN VIVO MICRONUCLEUS, Test System: BONE MARROW CELLS, Species: MOUSE, Strain/Sex: CD-1/MALE, Route: GAVAGE): active; positive | mutagenic call (End Point: IN VIVO MICRONUCLEUS, Test System: BONE MARROW ERYTHROCYTES, Species: HAMSTER, Strain/Sex: SYRIAN/MALE, Route: INTRAPERITONEAL): active; positive | mutagenic call (End Point: IN VIVO MICRONUCLEUS, Test System: BONE MARROW POLYCHROMATIC ERYTHROCYTES, Species: MOUSE, Strain/Sex: SWISS/MALE, Route: IP): active; positive | mutagenic call (End Point: In vivo chromosomal aberrations, Test System: Bone marrow cells, Species: Rat, Strain/Sex: Wistar/Male, Route: Intraperitoneal injection): active; positive (structural changes: gaps, breaks). effect by 100 or 200 mg/kg alpha-li | mutagenic call (End Point: In vivo micronucleus, Test System: Bone marrow erythrocytes, Species: Mouse, Strain/Sex: NMRI/Male, Route: Intraperitoneal): active; positive (hawthorn extract significantly reduced micronucleated polychromatic er | mutagenic call (End Point: In vivo micronucleus, Test System: Bone marrow erythrocytes, Species: Mouse, Strain/Sex: Swiss/Male, Route: Intraperitoneal): active; positive (pue or 4-nc showed dose-dependent protective effect against cyclophosp | mutagenic call (End Point: In vivo micronucleus, Test System: Micronucleated hepatocytes, Species: Rat, Strain/Sex: F344/Male, Route: Oral): inactive; negative | mutagenic call (End Point: In vivo micronucleus, Test System: Peripheral blood and bone marrow erythrocytes, Species: Dog, Strain/Sex: Beagle/Male and female, Route: Intravenous): active; positive. evaluations by flow cytometry and manual counting; multi-laboratory st | mutagenic call (End Point: MICRONUCLEUS, Test System: BONE MARROW, Species: RAT, Strain/Sex: WISTAR, Route: INTRAPERITONEAL): active; positive | mutagenic call (Test System: AMES SALMONELLA TYPHIMURIUM, Strain/Indicator: TA97, Metabolic Activation: NONE, Method: STANDARD PLATE): inactive; negative | mutagenic call (Test System: AMES SALMONELLA TYPHIMURIUM, Strain/Indicator: TA97, Metabolic Activation: RAT, LIVER, S-9, PHENOBARBITAL AND ALPHA-NAPHTHOFLAVONE, Method: STANDARD PLATE): inactive; negative | mutagenic call (Test System: AMES SALMONELLA TYPHIMURIUM, Strain/Indicator: TA98, Metabolic Activation: NONE, Method: PREINCUBATION): inactive; negative | mutagenic call (Test System: AMES SALMONELLA TYPHIMURIUM, Strain/Indicator: TA98, Metabolic Activation: NONE, Method: SPIRAL ASSAY): inactive; negative | mutagenic call (Test System: AMES SALMONELLA TYPHIMURIUM, Strain/Indicator: TA98, Metabolic Activation: NONE, Method: STANDARD PLATE): inactive; negative | mutagenic call (Test System: AMES SALMONELLA TYPHIMURIUM, Strain/Indicator: TA98, Metabolic Activation: RAT, LIVER, S-9, AROCLOR 1254, Method: SPIRAL ASSAY): inactive; negative | mutagenic call (Test System: AMES SALMONELLA TYPHIMURIUM, Strain/Indicator: TA98, Metabolic Activation: RAT, LIVER, S-9, PHENOBARBITAL AND ALPHA-NAPHTHOFLAVONE, Method: STANDARD PLATE): inactive; negative | mutagenic call (Test System: AMES SALMONELLA TYPHIMURIUM, Strain/Indicator: TA98, Metabolic Activation: S-9, Method: PREINCUBATION): inactive; negative | mutagenic call (Test System: AMES SALMONELLA TYPHIMURIUM, Strain/Indicator: TA98, Metabolic Activation: S-9, Method: STANDARD PLATE): inactive; negative | mutagenic call (Test System: AMES SALMONELLA TYPHIMURIUM, Strain/Indicator: TA100, Metabolic Activation: MOUSE, LIVER, S-9, PHENOBARBITAL AND BETA-NAPHTHOFLAVONE, Method: STANDARD PLATE): active; positive | mutagenic call (Test System: AMES SALMONELLA TYPHIMURIUM, Strain/Indicator: TA100, Metabolic Activation: MOUSE, LIVER, S-9, PHENOBARBITAL, BETA-NAPHTHOFLAVONE, ISOSAFROLE, ETHANOL, PREGNENOLONE AND 16ALPHA-CARBONITRILE, Method: STANDARD PLATE): active; positive | mutagenic call (Test System: AMES SALMONELLA TYPHIMURIUM, Strain/Indicator: TA100, Metabolic Activation: NONE, Method: PREINCUBATION): inactive; negative | mutagenic call (Test System: AMES SALMONELLA TYPHIMURIUM, Strain/Indicator: TA100, Metabolic Activation: NONE, Method: SPIRAL ASSAY): active; positive | mutagenic call (Test System: AMES SALMONELLA TYPHIMURIUM, Strain/Indicator: TA100, Metabolic Activation: RAT, LIVER, PARENCHYMAL CELLS (CRYOPRESERVED), Method: PREINCUBATION): inactive; negative | mutagenic call (Test System: AMES SALMONELLA TYPHIMURIUM, Strain/Indicator: TA100, Metabolic Activation: RAT, LIVER, PARENCHYMAL CELLS (FRESHLY ISOLATED OR STORED FOR 1 D), Method: PREINCUBATION): active; positive | mutagenic call (Test System: AMES SALMONELLA TYPHIMURIUM, Strain/Indicator: TA100, Metabolic Activation: RAT, LIVER, S-9, AROCLOR 1254, Method: SPIRAL ASSAY): active; positive | mutagenic call (Test System: AMES SALMONELLA TYPHIMURIUM, Strain/Indicator: TA100, Metabolic Activation: RAT, LIVER, S-9, AROCLOR 1254, Method: STANDARD PLATE): active; positive | mutagenic call (Test System: AMES SALMONELLA TYPHIMURIUM, Strain/Indicator: TA100, Metabolic Activation: RAT, LIVER, S-9, PHENOBARBITAL AND ALPHA-NAPHTHOFLAVONE, Method: STANDARD PLATE): active; positive
